The values below come from patent US20200102295A1, “NITROCATECHOL DERIVATIVES AS COMT INHIBITORS” (BIAL - PORTELA & CA, S.A., priority 2005, published 2020).

For one series, the target named is T1, rat liver COMT (Rattus norvegicus, UniProt P22734).
T1 construct: the organs were immediately removed and homogenised in 5 mM phosphate buffer of pH 7.8; from tissue; host or cells: rat liver homogenate (Wistar rats, dosed orally; ex vivo activity)
T1 sequence (P22734 1-264): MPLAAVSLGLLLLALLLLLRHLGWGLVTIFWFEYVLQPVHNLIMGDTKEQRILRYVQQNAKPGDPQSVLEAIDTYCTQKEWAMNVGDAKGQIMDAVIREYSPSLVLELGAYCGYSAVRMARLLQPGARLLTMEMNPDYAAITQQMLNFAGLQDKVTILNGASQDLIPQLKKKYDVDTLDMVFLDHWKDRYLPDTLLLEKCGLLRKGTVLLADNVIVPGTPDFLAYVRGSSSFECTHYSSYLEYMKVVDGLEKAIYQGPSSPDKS
The experiment in a line: Rat liver COMT activity after oral administration of test compounds. The note with it: 3 mg/kg oral. The class given is in vivo.

Series [1] deals with plasma levels of L-DOPA and 3-O-methyl-L-DOPA (3-OMD). The series is described as follows: Levels of L-DOPA and 3-O-methyl-L-DOPA in plasma of rats treated with L-DOPA plus benserazide. As to conditions: 3 mg/kg oral, 2 h after administration; for L-DOPA % increase (plasma level, % control) / 3-OMD % reduction (plasma level, % control): L-DOPA plus benserazide 1 h before plasma collection; for 3-OMD % reduction (plasma level, % control): given with minus sign; for L-Dopa/3-OMD: plasma ratio. The format is in vivo, rat.

The test system of series [2] is Neuro 2A mouse neuroblastoma cells. The experiment in a line: Cell toxicity: Neuro 2A cell viability (calcein-AM). As to conditions: Neuro 2A cells, 30 μM, 24 h exposure. The format is cell-based.
The target of a further series is T2, mouse liver COMT (Mus musculus, UniProt O88587).
T2 construct: Aliquots of 0.5 ml of liver homogenates were preincubated; from tissue; host or cells: mouse liver homogenate (NMRI mice, dosed orally; ex vivo activity)
T2 sequence (O88587 1-265): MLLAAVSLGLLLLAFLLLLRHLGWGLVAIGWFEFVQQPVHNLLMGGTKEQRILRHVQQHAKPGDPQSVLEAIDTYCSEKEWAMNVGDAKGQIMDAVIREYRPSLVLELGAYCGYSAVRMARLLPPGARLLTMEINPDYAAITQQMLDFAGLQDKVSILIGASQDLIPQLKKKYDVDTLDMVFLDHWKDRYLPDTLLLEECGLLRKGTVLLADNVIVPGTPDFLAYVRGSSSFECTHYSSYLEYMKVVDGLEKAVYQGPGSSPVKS
The series is described as follows: Mouse liver COMT activity after oral administration of test compounds. The format is in vivo. The note with it: 3 mg/kg oral, 3 h after administration.

Turning to `O=[N+]([O-])c1cc(-c2nc(-c3c[n+]([O-])ccc3C(F)(F)F)no2)cc(O)c1O` [Compound 18, 3-Nitro-5-[3-(1-oxy-4-trifluoromethyl-pyridin-3-yl)-[1,2,4]oxadiazol-5-yl]-benzene-1,2-diol], the “Rat Liver COMT activity (% control)” value turned out to be 5.2 % control on rat liver COMT (1 h after administration), 19.9 % control on rat liver COMT (3 h after administration), 43.0 % control at rat liver COMT (6 h after administration) and 57.4 % control on rat liver COMT (9 h after administration). Also, the “L-DOPA % increase (plasma level, % control)” value (“L-DOPA % increase” for short) in series [1] turned out to be 61.4%. In addition, the “3-OMD % reduction (plasma level, % control)” value (“3-OMD % reduction” below) in series [1] is on record as −63.9%. Further, the L-Dopa/3-OMD in series [1] came out at 4.5. In addition, the “% of viable cells” value in series [2] is given as 93.4%. For the same compound, the “COMT activity (% of control)” value on mouse liver COMT was 21.2 % of control.
As to `Cc1c(-c2noc(-c3cc(O)c(O)c([N+](=O)[O-])c3)n2)ccc(C(F)(F)F)[n+]1[O-]` [Compound 29, 5-[3-(2-Methyl-1-oxy-6-trifluoromethyl-pyridin-3-yl)-[1,2,4]oxadiazol-5-yl]-3-nitro-benzene-1,2-diol], the “Rat Liver COMT activity (% control)” value at rat liver COMT (1 h after administration) is 1.2 % control; at rat liver COMT (3 h after administration) it was 18.5 % control; at rat liver COMT (6 h after administration), 39.7 % control; at rat liver COMT (9 h after administration) it was 56.4 % control. In series [1], the “L-DOPA % increase” value is given as 105.1%. Besides, the “3-OMD % reduction” value in series [1] is listed as −80.7%. In series [1], the L-Dopa/3-OMD worked out at 10.6. Besides, the “% of viable cells” value in series [2] is on record as 62.2%. Also, at mouse liver COMT, the “COMT activity (% of control)” value is reported as 10.9 % of control.
For the compound `Cc1cc(C(F)(F)F)c(-c2noc(-c3cc(O)c(O)c([N+](=O)[O-])c3)n2)c[n+]1[O-]` [Compound 30, 5-[3-(6-Methyl-1-oxy-4-trifluoromethyl-pyridin-3-yl)-[1,2,4]oxadiazol-5-yl]-3-nitro-benzene-1,2-diol], the “Rat Liver COMT activity (% control)” value at rat liver COMT (1 h after administration) amounted to 6.3 % control; at rat liver COMT (3 h after administration) it was 34.8 % control; at rat liver COMT (6 h after administration) it was 41.2 % control; at rat liver COMT (9 h after administration), 54.5 % control. Further, the “L-DOPA % increase” value in series [1] was determined as 103.5%. For the same compound, in series [1], the “3-OMD % reduction” value is on record as −75.0%. Moreover, the L-Dopa/3-OMD in series [1] was 8.1. Moreover, the “% of viable cells” value in series [2] is 81.8%. The “COMT activity (% of control)” value on mouse liver COMT was 8.8 % of control.
Turning to `Cc1ccc(-c2noc(-c3cc(O)c(O)c([N+](=O)[O-])c3)n2)c(Br)[n+]1[O-]` [Compound 36, 5-[3-(2-Bromo-6-methyl-1-oxy-pyridin-3-yl)-[1,2,4]oxadiazol-5-yl]-3-nitro-benzene-1,2-diol], in series [2], the “% of viable cells” value is given as 76.3%. Further, the “COMT activity (% of control)” value on mouse liver COMT is given as 22.9 % of control.
In the case of `Cc1cc(C)[n+]([O-])c(Cl)c1-c1noc(-c2cc(O)c(O)c([N+](=O)[O-])c2)n1` [Compound 37, 5-[3-(2-Chloro-4,6-dimethyl-1-oxy-pyridin-3-yl)-[1,2,4]oxadiazol-5-yl]-3-nitro-benzene-1,2-diol], in series [2], the “% of viable cells” value is 92.3%. The “COMT activity (% of control)” value at mouse liver COMT is on record as 42.5 % of control.
In the case of `Cc1cc(C)[n+]([O-])c(Br)c1-c1noc(-c2cc(O)c(O)c([N+](=O)[O-])c2)n1` [Compound 38, 5-[3-(2-Bromo-4,6-dimethyl-1-oxy-pyridin-3-yl)-[1,2,4]oxadiazol-5-yl]-3-nitro-benzene-1,2-diol], the “% of viable cells” value in series [2] is 86.0%. Moreover, at mouse liver COMT, the “COMT activity (% of control)” value is reported as 16.3 % of control.
For `O=[N+]([O-])c1cc(-c2nc(Cc3ccc[n+]([O-])c3)no2)cc(O)c1O` [Compound 39, 3-Nitro-5-[3-(1′-oxy-pyridin-3-ylmethyl)-[1,2,4]oxadiazol-5-yl]-benzenediol] the same measures were 94.9% and 53.8 % of control.
Turning to `Cc1c(C)c(C)[n+]([O-])c(Br)c1-c1noc(-c2cc(O)c(O)c([N+](=O)[O-])c2)n1` [Compound 40, 5-[3-(2-Bromo-4,5,6-trimethyl-1-oxy-pyridin-3-yl)-[1,2,4]oxadiazol-5-yl]-3-nitrobenzene-1,2-diol], in series [2], the “% of viable cells” value is 69.1%. Also, the “COMT activity (% of control)” value on mouse liver COMT is 55.2 % of control.
For `Cc1c(C)c(C)[n+]([O-])c(Cl)c1-c1noc(-c2cc(O)c(O)c([N+](=O)[O-])c2)n1` [Compound 41, 5-[3-(2-Chloro-4,5,6-trimethyl-1-oxy-pyridin-3-yl)-[1,2,4]oxadiazol-5-yl]-3-nitrobenzene-1,2-diol], the “Rat Liver COMT activity (% control)” value at rat liver COMT (1 h after administration) was 21.2 % control; at rat liver COMT (3 h after administration), 9.3 % control; on rat liver COMT (6 h after administration) it was 18.8 % control; on rat liver COMT (9 h after administration), 39.7 % control. Further, the “L-DOPA % increase” value in series [1] was 95.2%. The “3-OMD % reduction” value in series [1] is reported as −72.3%. In addition, the L-Dopa/3-OMD in series [1] came out at 7.1. Besides, the “% of viable cells” value in series [2] is on record as 95.1%. Besides, the “COMT activity (% of control)” value at mouse liver COMT is 14 % of control.
On to `O=[N+]([O-])c1cc(-c2nc(-c3ccc[n+]([O-])c3C(F)(F)F)no2)cc(O)c1O` [Compound 42, 3-Nitro-5-[3-(1-oxy-2-trifluoromethyl-pyridin-3-yl)-[1,2,4]oxadiazol-5-yl]-benzene-1,2-diol], for which the “Rat Liver COMT activity (% control)” value was 3.6 % control at rat liver COMT (1 h after administration), 6.1 % control at rat liver COMT (3 h after administration), 12.3 % control on rat liver COMT (6 h after administration) and 30.9 % control at rat liver COMT (9 h after administration). Also, the “L-DOPA % increase” value in series [1] was 30.7%. Also, the “3-OMD % reduction” value in series [1] is reported as −43.4%. Besides, in series [1], the L-Dopa/3-OMD turned out to be 2.3. Further, the “% of viable cells” value in series [2] is 96.4%. Also, the “COMT activity (% of control)” value at mouse liver COMT was 9.4 % of control.
On to `O=[N+]([O-])c1cc(-c2nc(Cc3ccc(C(F)(F)F)[n+]([O-])c3)no2)cc(O)c1O` [Compound 43, 3-Nitro-5-[3-(1′-oxy-6-trifluoromethyl-pyridine-3-ylmethyl)-[1,2,4]oxadiazol-5-yl]-benzene-1,2-diol], for which the “Rat Liver COMT activity (% control)” value on rat liver COMT (1 h after administration) was 16.1 % control; at rat liver COMT (3 h after administration), 30.6 % control; on rat liver COMT (6 h after administration), 64.3 % control; at rat liver COMT (9 h after administration) it was 77.9 % control. Besides, the “L-DOPA % increase” value in series [1] is 74.9%. Also, the “3-OMD % reduction” value in series [1] is −48.3%. In addition, in series [1], the L-Dopa/3-OMD was 3.4. In addition, the “% of viable cells” value in series [2] is on record as 101.5%. For the same compound, the “COMT activity (% of control)” value on mouse liver COMT is on record as 27.2 % of control.
Consider `Cc1c(Cl)c(C)[n+]([O-])c(Cl)c1-c1noc(-c2cc(O)c(O)c([N+](=O)[O-])c2)n1` [Compound 45, 5-[3-(2,5-Dichloro-4,6-dimethyl-1-oxy-pyridin-3-yl)-[1,2,4]oxadiazol-5-yl]-3-nitrobenzene-1,2-diol], for which, in series [1], the “L-DOPA % increase” value worked out at 100.8%; the “3-OMD % reduction” value was −54.3%; the L-Dopa/3-OMD was determined as 4.4. In addition, in series [2], the “% of viable cells” value is 86.6%. The “COMT activity (% of control)” value on mouse liver COMT is 30.4 % of control.
For `Cc1c(-c2noc(-c3cc(O)c(O)c([N+](=O)[O-])c3)n2)c[n+]([O-])c(C)c1C` [Compound 46, 3-Nitro-5-[3-(4,5,6-trimethyl-1-oxy-pyridin-3-yl)-[1,2,4]oxadiazol-5-yl]-benzene-1,2-diol], in series [2], the “% of viable cells” value was 53.0%. In addition, the “COMT activity (% of control)” value on mouse liver COMT is listed as 43.1 % of control.
In the case of `Cc1c(Cl)c(C)[n+]([O-])c(Br)c1-c1noc(-c2cc(O)c(O)c([N+](=O)[O-])c2)n1` [Compound 47, 5-[3-(2-Bromo-5-chloro-4,6-dimethyl-1-oxy-pyridin-3-yl)-[1,2,4]oxadiazol-5-yl]-3-nitrobenzene-1,2-diol], the “Rat Liver COMT activity (% control)” value on rat liver COMT (1 h after administration) came to 10.6 % control; on rat liver COMT (3 h after administration), 4.0 % control; on rat liver COMT (6 h after administration) it was 3.8 % control; on rat liver COMT (9 h after administration) it was 8.2 % control. For the same compound, the “L-DOPA % increase” value in series [1] stood at 102.9%. In addition, in series [1], the “3-OMD % reduction” value is on record as −58.5%. Besides, in series [1], the L-Dopa/3-OMD is reported as 4.9. In addition, the “% of viable cells” value in series [2] is reported as 81.2%. The “COMT activity (% of control)” value on mouse liver COMT was 25.2 % of control.
Consider `CCN(CC)C(=O)/C(C#N)=C/c1cc(O)c(O)c([N+](=O)[O-])c1` [Entacapone, (E)-2-cyano-N,N-diethyl-3-(3,4-dihydroxy-5-nitrophenyl)acrylamide, reference compound], for which, in series [1], the “L-DOPA % increase” value is on record as 68.5%; the “3-OMD % reduction” value was −55.6%; the L-Dopa/3-OMD was determined as 3.8.
